Reference: PubChem BioAssay AID463131 (The Scripps Research Institute Molecular Screening Center, 2010)

Biological target: Protein phosphatase methylesterase 1 (Homo sapiens) (UniProt Q9Y570)
Assay: cellular PME-1 activity blockade – cell-based, fluorescence, late-stage follow-up (AID 463131)
Conditions: human cells, fluorescent probe labeling of PME-1; at 0.5 µM; active compounds read high

Chain of Protein phosphatase methylesterase 1 (Homo sapiens) (Q9Y570 whole entry, looked up): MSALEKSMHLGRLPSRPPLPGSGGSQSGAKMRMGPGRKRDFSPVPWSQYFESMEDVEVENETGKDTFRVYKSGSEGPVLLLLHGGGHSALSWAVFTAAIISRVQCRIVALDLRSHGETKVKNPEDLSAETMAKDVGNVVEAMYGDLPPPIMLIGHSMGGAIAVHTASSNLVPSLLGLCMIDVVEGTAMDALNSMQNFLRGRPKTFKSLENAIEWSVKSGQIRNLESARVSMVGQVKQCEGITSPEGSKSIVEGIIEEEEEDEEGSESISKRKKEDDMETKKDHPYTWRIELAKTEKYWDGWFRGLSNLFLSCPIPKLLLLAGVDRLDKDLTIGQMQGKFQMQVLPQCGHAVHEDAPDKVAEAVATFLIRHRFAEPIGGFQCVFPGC

| inhibition | Structure (SMILES) |
| --- | --- |
| 100% | COC(=O)N1C(=O)[C@](c2ccccc2)(C2CCCC2)N1C(=O)OC |
| 100% | COC(=O)N1C(=O)[C@](c2ccccc2)(C2CCCCC2)N1C(=O)OC |
